system: Recombinant human AMPK proteins (α1β1γ1, α2β1γ1, α1(1-335), α1(1-394) or α2(1-394)); assay: Scintillation Proximity Assay (SPA) of AMPK activation; format: biochemical; settings: activator concentration for 50% of maximal enzyme activity; 50 nM recombinant AMPK, 2 μM ATP, 30° C., 2 hr
How it was run: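 Recombinant human AMPK (α1β1γ1, α2β1γ1 or α-subunit truncations), fully pre-phosphorylated, was used at 50 nM with 2 μM biotin-SAMS, 2 μM ATP plus [γ-^33P]ATP in Tris-HCl pH 7.5, MgCl2, DTT, 2 hr at 30° C. Product was captured on streptavidin SPA beads. EC50 was the activator concentration giving 50% of maximal activity.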

EC50 [µM]	Compound
1.61	CC(C)/C(=C1\C(=O)N(Cc2cccc(C(=O)O)c2)c2ccccc21)c1ccsc1 [Example 106, 3-{3-[2-Methyl-1-thiophen-3-yl-prop-(E)-ylidene]-2-oxo-2,3-dihydro-indol-1-ylmethyl}-benzoic acid]
3.15	O=C(O)c1cccc(CN2C(=O)/C(=C(\c3ccccc3)c3ccc(C(F)(F)F)cc3)c3ccccc32)c1 [Example 48, 3-{2-Oxo-3-[1-phenyl-1-(4-trifluoromethyl-phenyl)-meth-(E)-ylidene]-2,3-dihydro-indol-1-ylmethyl}-benzoic acid]
4.9	COC(=O)c1cccc(CN2C(=O)/C(=C(/c3ccccc3)C(C)C)c3ccccc32)c1 [Example 85, 3-{3-[2-Methyl-1-phenyl-prop-(E)-ylidene]-2-oxo-2,3-dihydro-indol-1-ylmethyl}-benzoic acid methyl ester]
6.47	COC(=O)c1cccc(CN2C(=O)/C(=C(\c3ccccc3)c3ccc(OC)cc3)c3ccccc32)c1 [Example 8, 3-{3-[1-(4-Methoxy-phenyl)-1-phenyl-meth-(E)-ylidene]-2-oxo-2,3-dihydro-indol-1-ylmethyl}-benzoic acid methyl ester]
1.76	COC(=O)c1cccc(CN2C(=O)/C(=C(\c3ccccc3)c3cccc(Cl)c3Cl)c3ccccc32)c1 [Example 20, 3-{3-[1-(2,3-Dichloro-phenyl)-1-phenyl-meth-(E)-ylidene]-2-oxo-2,3-dihydro-indol-1-ylmethyl}-benzoic acid methyl ester]
7.88	COC(=O)c1cccc(CN2C(=O)/C(=C(/c3ccc(C(C)=O)cc3)C(C)C)c3ccccc32)c1 [Example 86, 3-{3-[1-(4-Acetyl-phenyl)-2-methyl-prop-(E)-ylidene]-2-oxo-2,3-dihydro-indol-1-ylmethyl}-benzoic acid methyl ester]
1.75	O=C(O)c1cccc(CN2C(=O)/C(=C(\c3ccccc3)c3ccccc3OC(F)(F)F)c3ccccc32)c1 [Example 49, 3-{2-Oxo-3-[1-phenyl-1-(2-trifluoromethoxy-phenyl)-meth-(E)-ylidene]-2,3-dihydro-indol-1-ylmethyl}-benzoic acid]
5.56	COC(=O)c1cccc(CN2C(=O)/C(=C(\c3ccccc3)c3ccsc3)c3ccccc32)c1 [Example 33, 3-{2-Oxo-3-[1-phenyl-1-thiophen-3-yl-meth-(E)-ylidene]-2,3-dihydro-indol-1-ylmethyl}-benzoic acid methyl ester]
2.21	CCOC(=O)c1cccc(N2C(=O)/C(=C(\C)c3ccccc3)c3ccccc32)c1 [Example 1, 3-[2-Oxo-3-(1-phenyl-ethylidene)-2,3-dihydro-indol-1-yl]-benzoic acid ethyl ester]
3.11	COC(=O)c1cccc(CN2C(=O)/C(=C(\c3ccccc3)c3ccc(C#N)cc3)c3ccccc32)c1 [Example 11, 3-{3-[1-(4-Cyano-phenyl)-1-phenyl-meth-(E)-ylidene]-2-oxo-2,3-dihydro-indol-1-ylmethyl}-benzoic acid methyl ester]
4.34	COC(=O)c1cccc(CN2C(=O)/C(=C(\c3ccccc3)c3cc(OC)c(OC)c(OC)c3)c3ccccc32)c1 [Example 14, 3-{2-Oxo-3-[1-phenyl-1-(3,4,5-trimethoxy-phenyl)-meth-(E)-ylidene]-2,3-dihydro-indol-1-ylmethyl}-benzoic acid methyl ester]
1.51	COC(=O)c1cccc(CN2C(=O)/C(=C(\c3ccccc3)c3ccc(Cl)cc3)c3cccc(F)c32)c1 [Example 6, 3-{3-[1-(4-Chloro-phenyl)-1-phenyl-meth-(E)-ylidene]-7-fluoro-2-oxo-2,3-dihydro-indol-1-ylmethyl}-benzoic acid methyl ester]
1.89	O=C(O)c1cccc(CN2C(=O)/C(=C(\c3ccccc3)c3ccc(F)cc3)c3ccccc32)c1 [Example 45, 3-{3-[1-(4-Fluoro-phenyl)-1-phenyl-meth-(E)-ylidene]-2-oxo-2,3-dihydro-indol-1-ylmethyl}-benzoic acid]
1.8	COC(=O)c1cccc(CN2C(=O)/C(=C(/c3ccccc3)c3ccc(Cl)cc3)c3ccccc32)c1 [Example 34, 3-{3-[1-(4-Chloro-phenyl)-1-phenyl-meth-(Z)-ylidene]-2-oxo-2,3-dihydro-indol-1-ylmethyl}-benzoic acid methyl ester]
1.25	COC(=O)c1cccc(CN2C(=O)/C(=C(\c3ccccc3)c3ccc(Cl)cc3)c3ccc(F)cc32)c1 [Example 26, 3-{3-[1-(4-Chloro-phenyl)-1-phenyl-meth-(E)-ylidene]-6-fluoro-2-oxo-2,3-dihydro-indol-1-ylmethyl}-benzoic acid methyl ester]
1	COC(=O)c1cccc(CN2C(=O)/C(=C(\c3ccccc3)c3cc(Cl)cc(Cl)c3)c3ccccc32)c1 [Example 19, 3-{3-[1-(3,5-Dichloro-phenyl)-1-phenyl-meth-(E)-ylidene]-2-oxo-2,3-dihydro-indol-1-ylmethyl}-benzoic acid methyl ester]
2.3	COC(=O)c1cccc(CN2C(=O)/C(=C(\c3ccccc3)c3ccc(Cl)cc3)c3ccccc32)c1 [Example 5, 3-((3-((4-Chlorophenyl)(phenyl)meth-(E)-ylene)-2-oxoindolin-1-yl)methyl)benzoic acid methyl ester]
2.73	COC(=O)c1cccc(CN2C(=O)/C(=C(\c3ccccc3)c3ccc(Cl)cc3)c3c(F)cccc32)c1 [Example 25, 3-{3-[1-(4-Chloro-phenyl)-1-phenyl-meth-(E)-ylidene]-4-fluoro-2-oxo-2,3-dihydro-indol-1-ylmethyl}-benzoic acid methyl ester]
2.91	COC(=O)c1ccc(CN2C(=O)/C(=C(\c3ccccc3)c3ccc(Cl)cc3)c3ccccc32)nc1 [Example 38, 6-{3-[1-(4-Chloro-phenyl)-1-phenyl-meth-(E)-ylidene]-2-oxo-2,3-dihydro-indol-1-ylmethyl}-nicotinic acid methyl ester]
1.69	COC(=O)c1cccc(CN2C(=O)/C(=C(/Cc3ccc(Cl)cc3)c3ccccc3)c3ccccc32)c1 [Example 79, 3-{3-[2-(4-Chloro-phenyl)-1-phenyl-eth-(Z)-ylidene]-2-oxo-2,3-dihydro-indol-1-ylmethyl}-benzoic acid methyl ester]
6.63	O=C(O)c1cccc(CN2C(=O)/C(=C(\c3ccccc3)c3cc(C(F)(F)F)ccc3Cl)c3ccccc32)c1 [Example 64, 3-{3-[1-(2-Chloro-5-trifluoromethyl-phenyl)-1-phenyl-meth-(E)-ylidene]-2-oxo-2,3-dihydro-indol-1-ylmethyl}-benzoic acid]
